According to patent publication US20240174605A1, “ARYLSULFONAMIDES AS OREXIN RECEPTOR AGONISTS” (RESEARCH TRIANGLE INSTITUTE, priority 2021, published 2024):
In brackets after ≈: the same amount, converted by molar mass. Entries after “also recorded” stand apart in the source; their conditions may differ. Where two headings read alike, the source gives them in different places. Each block holds one compound with its values, some of them ahead of it.

Experiments:
human OX2 receptor = molecular target: T1, human OX2 receptor (Homo sapiens, UniProt O43614); assay: OX2R calcium mobilization assay; type: cell-based; details: for Emax: Table 10; for agonist potency at OX2R, in words: calcium mobilization
T1 construct: host or cells: CHO RD-HGA16 cells
T1 sequence (O43614 1-444): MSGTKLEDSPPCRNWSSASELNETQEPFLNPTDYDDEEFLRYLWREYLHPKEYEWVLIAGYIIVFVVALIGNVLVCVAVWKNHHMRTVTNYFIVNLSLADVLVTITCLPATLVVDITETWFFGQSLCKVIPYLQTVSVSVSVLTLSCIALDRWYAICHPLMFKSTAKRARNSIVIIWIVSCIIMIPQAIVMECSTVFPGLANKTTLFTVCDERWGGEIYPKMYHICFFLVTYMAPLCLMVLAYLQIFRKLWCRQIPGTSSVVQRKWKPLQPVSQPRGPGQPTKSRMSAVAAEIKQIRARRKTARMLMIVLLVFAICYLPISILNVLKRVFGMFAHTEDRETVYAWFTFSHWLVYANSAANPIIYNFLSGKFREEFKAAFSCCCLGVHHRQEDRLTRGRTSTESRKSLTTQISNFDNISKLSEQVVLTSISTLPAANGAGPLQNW
Procedure: (§1) Activity of the target compounds at the human OX1 and OX2 receptors was determined utilizing CHO RD-HGA16 cells (Molecular Devices) engineered to stably express either the human OX1 or the human OX2 receptor. Cells were maintained in Ham's F12 supplemented with 10% fetal bovine serum, 100 units of penicillin and streptomycin, and 100 μg/mL normocin™. To conduct the assay, cells were plated at 25,000 cells/well and incubated overnight at 37° C., 5% CO2. The next day, cells were washed with assay buffer and loaded with Calcium 5 dye (Molecular Devices). After 45 minutes, cells were pretreated with a 9% DMSO solution for 15 minutes.
(§2) All of the synthesized compounds were characterized for their agonist potencies in the calcium mobilization assays using CHO cells overexpressing either the OX1R or OX2R. Reference is made to German, N. A.; Decker, A. M.; Gilmour, B. P.; Thomas, B. F.; Zhang, Y., Truncated Orexin Peptides: Structure-Activity Relationship Studies.

[1] = Aqueous solubility at pH 2; type: physicochemical; details: aqueous medium at pH 2, pH 2, simulated gastric fluid
Description: (§3) The main structural difference is the pyridyl group connected to the sulfonamide in RTIOXA-47, as compared to the other 3 compounds. The replacement of a phenyl group with a pyridyl reduced the electron density of this aromatic ring.

[2] = Metabolic stability in rat liver microsomes (RLM); type: in vitro ADME; details: for metabolic stability in rat liver microsomes, in words: RLM; for half-life: rat, rat liver microsomes, read-out: t1/2 (RLM)
Description: as §3

σ1 = σ1 (Homo sapiens, UniProt Q99720); assay: Target selectivity: σ1; type: binding
σ1, sequence (Q99720 whole entry): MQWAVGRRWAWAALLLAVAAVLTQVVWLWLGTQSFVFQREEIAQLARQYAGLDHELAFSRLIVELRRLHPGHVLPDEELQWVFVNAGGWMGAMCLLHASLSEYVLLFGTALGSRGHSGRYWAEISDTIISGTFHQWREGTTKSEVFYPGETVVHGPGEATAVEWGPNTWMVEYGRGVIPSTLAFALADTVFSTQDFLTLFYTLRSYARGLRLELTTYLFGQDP

wild-type mice = details: 40 mg/kg i.p., salt form; cited from earlier work
OX1R [3] = molecular target: T2, OX1R (Homo sapiens, UniProt O43613); assay: OX1R calcium mobilization assay; type: cell-based; parameters: host or cells: CHO RD-HGA16 cells; details: for OX1/OX2: ratio of OX1 to OX2 potency value; for agonist potency at OX1R, in words: calcium mobilization
T2 sequence (O43613 1-425): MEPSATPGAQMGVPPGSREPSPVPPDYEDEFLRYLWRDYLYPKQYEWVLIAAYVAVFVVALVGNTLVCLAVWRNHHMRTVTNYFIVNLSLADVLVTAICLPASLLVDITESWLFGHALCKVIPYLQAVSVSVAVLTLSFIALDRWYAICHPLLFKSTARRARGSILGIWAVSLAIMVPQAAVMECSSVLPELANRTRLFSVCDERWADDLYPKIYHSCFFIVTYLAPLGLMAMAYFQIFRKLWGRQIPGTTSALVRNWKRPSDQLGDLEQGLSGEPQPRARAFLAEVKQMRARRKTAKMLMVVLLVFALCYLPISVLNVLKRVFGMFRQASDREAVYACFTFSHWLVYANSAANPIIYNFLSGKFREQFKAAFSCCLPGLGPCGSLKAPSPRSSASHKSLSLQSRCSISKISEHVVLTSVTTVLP
Procedure: as §1, §2

Half-life in vivo = details: read-out: t1/2 (in vivo) (converted)
OX1R [4] = molecular target: T2, OX1R; details: literature; cited from earlier work
both orexin receptors = details: literature (Turku et al. 2017); cited from earlier work
[5] = literature (Turku et al. 2017); cited from earlier work
[6] = CHO RD-HGA16 cells expressing human OX2, calcium mobilization, read-out: EC50 (OX2)
[7] = CHO RD-HGA16 cells expressing human OX1, calcium mobilization, read-out: EC50 (OX1)

SMILES: COc1ccc(-c2cccc(C(=O)N(C)C)c2)cc1S(=O)(=O)Nc1cccc(NCCNC(=O)c2ccccc2N(C)C)c1 [Compound 1, reference compound]
Emax (human OX2 receptor): 94%
solubility [1]: > 400 µM
metabolic stability in rat liver microsomes, in words [2]: modest metabolic stability
half-life [2]: < 1 min
Ki (σ1): 2.5 µM
body temperature (wild-type mice): without affecting body temperature
Emax (OX1R [3]; Table 10): 55%

SMILES: COc1ccc(-c2cccc(C(=O)N3CCCC3)c2)cc1S(=O)(=O)Nc1cccc(NCCNC(=O)c2ccccc2N(C)C)c1 [Compound 3]
EC50 (human OX2 receptor; [6]): 0.252 µM

SMILES: CCCNC(=O)c1cccc(-c2ccc(OC)c(S(=O)(=O)Nc3cccc(NCCNC(=O)c4ccccc4N(C)C)c3)c2)c1 [Compound 4]
EC50 (OX1R [3]; [7]): > 10 µM
OX1/OX2 (OX1R [3]): >20

SMILES: CCN(CC)C(=O)c1cccc(-c2ccc(OC)c(S(=O)(=O)Nc3cccc(NCCNC(=O)c4ccccc4N(C)C)c3)c2)c1 [Compound 5]
EC50 (OX1R [3]; [7]): 0.737 µM
OX1/OX2 (OX1R [3]): 3.32

SMILES: COc1ccc(-c2cccc(C(C)C)c2)cc1S(=O)(=O)Nc1cccc(NCCNC(=O)c2ccccc2N(C)C)c1 [Compound 6]
EC50 (human OX2 receptor; [6]): > 10 µM
EC50 (OX1R [3]; [7]): > 10 µM

SMILES: COc1ccc(-c2cccc(N(C)C)c2)cc1S(=O)(=O)Nc1cccc(NCCNC(=O)c2ccccc2N(C)C)c1 [Compound 7]
EC50 (human OX2 receptor; [6]): 2.13 µM
EC50 (OX1R [3]; [7]): > 10 µM
OX1/OX2 (OX1R [3]): >20

SMILES: CCN(CC)c1cccc(-c2ccc(OC)c(S(=O)(=O)Nc3cccc(NCCNC(=O)c4ccccc4N(C)C)c3)c2)c1 [Compound 8]
EC50 (OX1R [3]; [7]): > 10 µM
OX1/OX2 (OX1R [3]): >20

SMILES: CCCN(CCC)c1cccc(-c2ccc(OC)c(S(=O)(=O)Nc3cccc(NCCNC(=O)c4ccccc4N(C)C)c3)c2)c1 [Compound 9]
EC50 (human OX2 receptor; [6]): > 10 µM
EC50 (OX1R [3]; [7]): > 10 µM

SMILES: COc1ccc(-c2cccc(C(C)(C)C)c2)cc1S(=O)(=O)Nc1cccc(NCCNC(=O)c2ccccc2N(C)C)c1 [Compound 10]
EC50 (human OX2 receptor; [6]): > 10 µM
EC50 (OX1R [3]; [7]): > 10 µM

SMILES: COc1ccc(-c2cccc(C(F)(F)F)c2)cc1S(=O)(=O)Nc1cccc(NCCNC(=O)c2ccccc2N(C)C)c1 [Compound 11]
EC50 (human OX2 receptor; [6]): > 10 µM
EC50 (OX1R [3]; [7]): > 10 µM

SMILES: COc1ccc(-c2cccc(C(=O)N(C)C)c2)cc1S(=O)(=O)Nc1cccc(N2CCN(C(=O)c3ccccc3N(C)C)CC2)c1 [Compound 17]
EC50 (human OX2 receptor; [6]): > 10 µM
EC50 (OX1R [3]; [7]): > 10 µM

SMILES: COc1ccc(-c2cccc(C(=O)N(C)C)c2)cc1S(=O)(=O)Nc1cccc(N2CCN(C(=O)c3cccc(C)c3)CC2)c1 [Compound 18]
EC50 (human OX2 receptor; [6]): > 10 µM
EC50 (OX1R [3]; [7]): > 10 µM

SMILES: COc1ccc(-c2cccc(C(=O)N(C)C)c2)cc1C(=O)Nc1cccc(NCCNC(=O)c2cccc(C)c2)c1 [Compound 41]
agonist potency at OX1R, in words (OX1R [3]): inactive

SMILES: COc1ccc(-c2cccc(C(=O)N(C)Cc3ccncc3)c2)cc1-c1nnc(Nc2cccc(NCCNC(=O)c3cccc(C)c3)c2)s1 [Compound 43]
agonist potency at OX2R, in words (human OX2 receptor): inactive
agonist potency at OX1R, in words (OX1R [3]): inactive

SMILES: COc1ccc(-c2cccc(C(=O)N(C)Cc3ccncc3)c2)cc1-c1nnc(Nc2cccc(OCCNC(=O)c3cccc(C)c3)c2)s1 [Compound 44]
agonist potency at OX2R, in words (human OX2 receptor): inactive
agonist potency at OX1R, in words (OX1R [3]): inactive

SMILES: COc1ccc(-c2cccc(C(=O)N(C)Cc3ccncc3)c2)cc1S(=O)(=O)Nc1cncc(OCCNC(=O)c2cccc(C)c2)c1 [Compound 55]
OX1/OX2 (OX1R [3]): 1.52

SMILES: CCCCCC(=O)NCCNc1cncc(NS(=O)(=O)c2cc(-c3cccc(C(=O)N(C)Cc4ccncc4)c3)ccc2OC)c1 [Compound 67]
EC50 (human OX2 receptor): 0.0997 µM
EC50 (OX1R [3]): 0.0333 µM
OX1/OX2 (OX1R [3]): 0.33

SMILES: COC(=O)N1CCC[C@H](NS(C)(=O)=O)[C@@H]1CO[C@H]1CC[C@@H](c2ccccc2)CC1 [TAK-925]
activity at OX1R, in words (OX1R [4]): little to no activity

SMILES: Cc1ccc(Cn2c(=N)n(CC(O)c3ccc(Cl)c(Cl)c3)c3ccccc32)cc1 (stereo not drawn) [Yan7874]
EC50 (both orexin receptors): > 3.2 µM
cytotoxicity [5]: orexin receptor independent cytotoxicity

More lines, main results first:

agonist potency at OX2R, in words (human OX2 receptor): sharp decrease of potency
agonist potency at OX1R, in words (OX1R [3]): complete loss of potency
OX1/OX2 (OX1R [3]): >10.0
SMILES: COc1ccc(-c2cccc(C(=O)NCCN(C)C)c2)cc1S(=O)(=O)Nc1cccc(NCCNC(=O)c2cccc(C)c2)c1 [Compound 32]

OX1/OX2 (OX1R [3]): 4.69
SMILES: COc1ccc(-c2cccc(C(=O)N(C)c3ccccn3)c2)cc1S(=O)(=O)Nc1cccc(NCCNC(=O)c2cccc(C)c2)c1 [Compound 33]

agonist potency at OX1R, in words (OX1R [3]): complete loss of the OX1R potency
OX1/OX2 (OX1R [3]): >20.0
SMILES: COc1ccc(-c2cccc(C(=O)NCc3ccccn3)c2)cc1S(=O)(=O)Nc1cccc(NCCNC(=O)c2cccc(C)c2)c1 [Compound 36]

Emax (human OX2 receptor): 96%
agonist potency at OX2R, in words (human OX2 receptor): high and equal potency
solubility [1]: 313 µM (≈ 208 µg/mL)
metabolic stability in rat liver microsomes, in words [2]: modest metabolic stability
half-life [2]: 1.9 min
Emax (OX1R [3]; Table 10): 105%
EC50 (OX1R [3]; Table 10, read-out: OX1R EC50): 0.024 µM
agonist potency at OX1R, in words (OX1R [3]): high and equal potency
OX1/OX2 (OX1R [3]): 1.0
SMILES: COc1ccc(-c2cccc(C(=O)N(C)Cc3ccncc3)c2)cc1S(=O)(=O)Nc1cccc(NCCNC(=O)c2cccc(C)c2)c1 [Compound 38]

OX1/OX2 (OX1R [3]): 2.78
SMILES: COc1ccc(-c2cccc(C(=O)N(C)CCc3ccccn3)c2)cc1S(=O)(=O)Nc1cccc(NCCNC(=O)c2cccc(C)c2)c1 [Compound 39]

Emax (human OX2 receptor): 94%
solubility [1]: > 400 µM
metabolic stability in rat liver microsomes, in words [2]: modest metabolic stability
half-life [2]: 1.8 min
Emax (OX1R [3]; Table 10): 95%
SMILES: COc1ccc(-c2cccc(C(=O)N(C)Cc3ccncc3)n2)cc1S(=O)(=O)Nc1cccc(NCCNC(=O)c2cccc(C)c2)c1 [Compound 59]

Emax (human OX2 receptor): 99%
solubility [1]: > 400 µM
half-life [2]: 39.7 min
half-life (Half-life in vivo): 318 min
Emax (OX1R [3]; Table 10): 101%
SMILES: COc1ccc(-c2cccc(C(=O)N(C)Cc3ccncc3)c2)cc1S(=O)(=O)Nc1cncc(NCCNC(=O)c2cccc(C)c2)c1 [Compound 61]
metabolic stability in rat liver microsomes, in words ([2]; listed as RTIOXA-47): significantly improved half-life; also recorded: significantly improved metabolic stability

OX1/OX2 (OX1R [3]): 0.48
SMILES: CCC(=O)NCCNc1cncc(NS(=O)(=O)c2cc(-c3cccc(C(=O)N(C)Cc4ccncc4)c3)ccc2OC)c1 [Compound 63]

OX1/OX2 (OX1R [3]): 0.46
SMILES: COc1ccc(-c2cccc(C(=O)N(C)Cc3ccncc3)c2)cc1S(=O)(=O)Nc1cncc(NCCNC(=O)C(C)C)c1 [Compound 64]

OX1/OX2 (OX1R [3]): 0.60
SMILES: CCCC(=O)NCCNc1cncc(NS(=O)(=O)c2cc(-c3cccc(C(=O)N(C)Cc4ccncc4)c3)ccc2OC)c1 [Compound 65]

OX1/OX2 (OX1R [3]): 0.33
SMILES: CCCCC(=O)NCCNc1cncc(NS(=O)(=O)c2cc(-c3cccc(C(=O)N(C)Cc4ccncc4)c3)ccc2OC)c1 [Compound 66]

OX1/OX2 (OX1R [3]): 0.44
SMILES: COc1ccc(-c2cccc(C(=O)N(C)Cc3ccncc3)c2)cc1S(=O)(=O)Nc1cncc(NCCNC(=O)C2CCCCC2)c1 [Compound 68]

OX1/OX2 (OX1R [3]): 0.57
SMILES: COc1ccc(-c2cccc(C(=O)N(C)Cc3ccncc3)c2)cc1S(=O)(=O)Nc1cncc(NCCNC(=O)CC2CCCC2)c1 [Compound 69]

OX1/OX2 (OX1R [3]): 0.72
SMILES: COc1ccc(-c2cccc(C(=O)N(C)Cc3ccncc3)c2)cc1S(=O)(=O)Nc1cncc(NCCNC(=O)CCC2CCCCC2)c1 [Compound 70]
